Target: endogenous, cell-bound CD73 on SK-MEL-28 cells (Homo sapiens (Human), UniProt P21589)
Assay: Inhibition of endogenous, cell-bound CD73 enzyme activity in SK-MEL-28 cells (Malachite Green)
Type: cell-based
Details: 100 μM AMP, 30 minutes at room temperature
Experimental: The day before the experiment, 5000 cells were plated per well in a 96-well plate. Cells were washed twice with […] reaction buffer (20 mM HEPES, pH 7.4, 125 mM NaCl, 1 mM KCl, 2 mM MgCl2, 10 mM glucose) to remove residual inorganic phosphate. After washing, assays contained serial dilutions of test compounds and 100 μM of AMP in a total volume of 200 μL reaction buffer, with a final DMSO concentration≤0.5%. After 30 minutes at room temperature, supernatant was removed from the cells. […] The concentration of inorganic phosphate was determined using a phosphate standard curve to determine IC50.

Chain of endogenous, cell-bound CD73 on SK-MEL-28 cells (P21589 27-574): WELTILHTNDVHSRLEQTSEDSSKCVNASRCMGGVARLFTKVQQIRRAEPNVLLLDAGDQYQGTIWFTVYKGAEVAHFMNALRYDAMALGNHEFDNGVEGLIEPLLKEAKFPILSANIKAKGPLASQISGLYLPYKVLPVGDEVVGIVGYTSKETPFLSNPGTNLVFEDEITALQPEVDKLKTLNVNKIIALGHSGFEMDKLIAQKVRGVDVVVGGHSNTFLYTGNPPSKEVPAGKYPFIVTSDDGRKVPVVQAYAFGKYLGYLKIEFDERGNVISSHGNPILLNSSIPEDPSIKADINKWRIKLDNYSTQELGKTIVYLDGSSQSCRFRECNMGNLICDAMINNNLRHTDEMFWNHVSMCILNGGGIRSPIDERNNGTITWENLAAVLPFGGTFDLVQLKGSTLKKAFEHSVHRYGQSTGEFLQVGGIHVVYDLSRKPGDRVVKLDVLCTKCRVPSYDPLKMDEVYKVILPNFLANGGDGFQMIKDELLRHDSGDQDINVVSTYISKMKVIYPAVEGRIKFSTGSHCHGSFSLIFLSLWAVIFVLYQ

| SMILES | IC50 |
| --- | --- |
| Nc1cccc(CC(OC[C@H]2O[C@@H](n3cnc4c(N)nc(Cl)nc43)[C@@H](F)[C@@H]2O)(C(=O)O)C(=O)O)c1 [compound 27] | 886 nM |
| Nc1nc(Cl)nc2c1ncn2[C@@H]1O[C@H](COC(Cc2cccc(Oc3ccccc3)c2)(C(=O)O)C(=O)O)[C@@H](O)[C@@H]1F [compound 13, 2-(((2R,3R,4S,5R)-5-(6-amino-2-chloro-9H-purin-9-yl)-4-fluoro-3-hydroxytetrahydrofuran-2-yl)methoxy)-2-(3-phenoxybenzyl)malonic acid] | 2190 nM |
| Nc1nc(Cl)nc2c1ncn2[C@@H]1O[C@H](COC(Cc2ccc(CC(=O)O)cc2)(C(=O)O)C(=O)O)[C@@H](O)[C@@H]1F [compound 78, 2-(((2R,3R,4S,5R)-5-(6-amino-2-chloro-9H-purin-9-yl)-4-fluoro-3-hydroxytetrahydrofuran-2-yl)methoxy)-2-(4-(carboxymethyl)benzyl)malonic acid] | 234 nM |
| CNC(=O)C(OC[C@H]1O[C@@H](n2cnc3c(N)nc(Cl)nc32)[C@@H](F)[C@@H]1O)P(=O)(O)O (stereo partly drawn) [compound 29, (1-(((2R,3R,4S,5R)-5-(6-amino-2-chloro-9H-purin-9-yl)-4-fluoro-3-hydroxytetrahydrofuran-2-yl)methoxy)-2-(methylamino)-2-oxoethyl)phosphonic acid] | 5720 nM |
| Nc1nc(Cl)nc2c1ncn2[C@@H]1O[C@H](COC(Cc2cc(-c3ccccc3)no2)(C(=O)O)C(=O)O)[C@@H](O)[C@@H]1F [compound 61, 2-(((2R,3R,4S,5R)-5-(6-amino-2-chloro-9H-purin-9-yl)-4-fluoro-3-hydroxytetrahydrofuran-2-yl)methoxy)-2-((3-phenylisoxazol-5-yl)methyl)malonic acid] | 6970 nM |
| Nc1nc(Cl)nc2c1ncn2[C@@H]1O[C@H](COC(Cc2ccc(Cl)nc2)(C(=O)O)C(=O)O)[C@@H](O)[C@@H]1F [compound 8, 2-(((2R,3R,4S,5R)-5-(6-amino-2-chloro-9H-purin-9-yl)-4-fluoro-3-hydroxytetrahydro-furan-2-yl)methoxy)-2-((6-chloropyridin-3-yl)methyl)malonic acid] | 772 nM |
| Nc1nc(Cl)nc2c1ncn2[C@@H]1O[C@H](COC(Cc2ccc(C(F)(F)F)cc2)(C(=O)O)C(=O)O)[C@@H](O)[C@@H]1F [compound 20, 2-(((2R,3R,4S,5R)-5-(6-amino-2-chloro-9H-purin-9-yl)-4-fluoro-3-hydroxytetrahydrofuran-2-yl)methoxy)-2-(4-(trifluoromethyl)benzyl)malonic acid] | 611 nM |
| N#Cc1ccc(CC(OC[C@H]2O[C@@H](n3cnc4c(N)nc(Cl)nc43)[C@@H](F)[C@@H]2O)(C(=O)O)C(=O)O)cc1 [compound 34] | 153 nM |
| Nc1nc(Cl)nc2c1ncn2[C@@H]1O[C@H](COC(Cc2cccc(F)c2)(C(=O)O)C(=O)O)[C@@H](O)[C@@H]1F [compound 44] | 1010 nM |
| Nc1nc(Cl)nc2c1ncn2[C@@H]1O[C@H](COC(Cc2ccc(OC(F)(F)F)cc2)(C(=O)O)C(=O)O)[C@@H](O)[C@@H]1F [compound 36] | 197 nM |
| Nc1nc(Cl)nc2c1ncn2[C@@H]1O[C@H](COC(Cc2ccc(S(N)(=O)=O)cc2)(C(=O)O)C(=O)O)[C@@H](O)[C@@H]1F [compound 86, 2-(((2R,3R,4S,5R)-5-(6-amino-2-chloro-9H-purin-9-yl)-4-fluoro-3-hydroxytetrahydrofuran-2-yl)methoxy)-2-(4-sulfamoylbenzyl)malonic acid] | 626 nM |

The remaining compounds from weak to strong by IC50, led by results:

| IC50 | SMILES |
| --- | --- |
| 6320 nM | Nc1nc(Cl)nc2c1ncn2[C@@H]1O[C@H](COC(CCCCO)(C(=O)O)C(=O)O)[C@@H](O)[C@@H]1F [compound 18, 2-(((2R,3R,4S,5R)-5-(6-amino-2-chloro-9H-purin-9-yl)-4-fluoro-3-hydroxytetrahydrofuran-2-yl)methoxy)-2-(4-hydroxybutyl)malonic acid] |
| 3380 nM | N#CCC(OC[C@H]1O[C@@H](n2cnc3c(N)nc(Cl)nc32)[C@@H](F)[C@@H]1O)(C(=O)O)C(=O)O [compound 33, 2-(((2R,3R,4S,5R)-5-(6-amino-2-chloro-9H-purin-9-yl)-4-fluoro-3-hydroxytetrahydrofuran-2-yl)methoxy)-2-(cyanomethyl)malonic acid] |
| 1250 nM | Nc1nc(Cl)nc2c1ncn2[C@@H]1O[C@H](COC(Cc2cccc(O)c2)(C(=O)O)C(=O)O)[C@@H](O)[C@@H]1F [compound 56, 2-(((2R,3R,4S,5R)-5-(6-amino-2-chloro-9H-purin-9-yl)-4-fluoro-3-hydroxytetrahydrofuran-2-yl)methoxy)-2-(3-hydroxybenzyl)malonic acid] |
| 1020 nM | Nc1nc(Cl)nc2c1ncn2[C@@H]1O[C@H](COC(Cc2cccc(C(F)(F)F)c2)(C(=O)O)C(=O)O)[C@@H](O)[C@@H]1F [compound 16, 2-(((2R,3R,4S,5R)-5-(6-amino-2-chloro-9H-purin-9-yl)-4-fluoro-3-hydroxytetrahydrofuran-2-yl)methoxy)-2-(3-(trifluoromethyl)benzyl)malonic acid] |
| 480 nM | Nc1nc(Cl)nc2c1ncn2[C@@H]1O[C@H](COC(Cc2ccsc2)(C(=O)O)C(=O)O)[C@@H](O)[C@@H]1F [compound 23] |
| 426 nM | Nc1nc(Cl)nc2c1ncn2[C@@H]1O[C@H](COC(Cc2ccc(O)cc2)(C(=O)O)C(=O)O)[C@@H](O)[C@@H]1F [compound 66, 2-(((2R,3R,4S,5R)-5-(6-amino-2-chloro-9H-purin-9-yl)-4-fluoro-3-hydroxytetrahydrofuran-2-yl)methoxy)-2-(4-hydroxybenzyl)malonic acid] |
| 261 nM | N#Cc1cccc(CC(OC[C@H]2O[C@@H](n3cnc4c(N)nc(Cl)nc43)[C@@H](F)[C@@H]2O)(C(=O)O)C(=O)O)c1 [compound 35] |
| 202 nM | Nc1nc(Cl)nc2c1ncn2[C@@H]1O[C@H](COC(Cc2ccc(OCC(=O)O)cc2)(C(=O)O)C(=O)O)[C@@H](O)[C@@H]1F [compound 92, 2-(((2R,3R,4S,5R)-5-(6-amino-2-chloro-9H-purin-9-yl)-4-fluoro-3-hydroxytetrahydrofuran-2-yl)methoxy)-2-(4-(carboxymethoxy)benzyl)malonic acid] |
| 196 nM | Nc1nc(Cl)nc2c1ncn2[C@@H]1O[C@H](COC(Cc2ccc(OCc3ccccc3)cc2)(C(=O)O)C(=O)O)[C@@H](O)[C@@H]1F [compound 65, 2-(((2R,3R,4S,5R)-5-(6-amino-2-chloro-9H-purin-9-yl)-4-fluoro-3-hydroxytetrahydrofuran-2-yl)methoxy)-2-(4-(benzyloxy)benzyl)malonic acid] |
| 177 nM | Nc1nc(Cl)nc2c1ncn2[C@@H]1O[C@H](COC(Cc2ccc(Cl)cc2F)(C(=O)O)C(=O)O)[C@@H](O)[C@@H]1F [compound 80, 2-(((2R,3R,4S,5R)-5-(6-amino-2-chloro-9H-purin-9-yl)-4-fluoro-3-hydroxytetrahydrofuran-2-yl)methoxy)-2-(4-chloro-2-fluorobenzyl)malonic acid] |
| 162 nM | Nc1nc(Cl)nc2c1ncn2[C@@H]1O[C@H](COC(Cc2ccc(-c3ccccc3)cc2)(C(=O)O)C(=O)O)[C@@H](O)[C@@H]1F [compound 79, 2-([1,1′-biphenyl]-4-ylmethyl)-2-(((2R,3R,4S,5R)-5-(6-amino-2-chloro-9H-purin-9-yl)-4-fluoro-3-hydroxytetrahydro-furan-2-yl)methoxy)malonic acid] |

From patent publication US10472364B2 (Calithera Biosciences, Inc., priority 2016, dated 2019)
